Measurements published in patent US6221858A, “Pyridyl-and pyrimidyl-piperazines in the treatment of substance abuse disorders” (priority 1996, dated 2001).
Where a name gives a salt, the structure may show the parent alone. Read-outs that look alike come from different tables or passages of the source.

Legend:
5-HT1A Sites = target: T1, 5-HT1A Sites (Rattus norvegicus, UniProt P19327); assay: biochemical; assay type: binding
T1 sequence (P19327 1-422): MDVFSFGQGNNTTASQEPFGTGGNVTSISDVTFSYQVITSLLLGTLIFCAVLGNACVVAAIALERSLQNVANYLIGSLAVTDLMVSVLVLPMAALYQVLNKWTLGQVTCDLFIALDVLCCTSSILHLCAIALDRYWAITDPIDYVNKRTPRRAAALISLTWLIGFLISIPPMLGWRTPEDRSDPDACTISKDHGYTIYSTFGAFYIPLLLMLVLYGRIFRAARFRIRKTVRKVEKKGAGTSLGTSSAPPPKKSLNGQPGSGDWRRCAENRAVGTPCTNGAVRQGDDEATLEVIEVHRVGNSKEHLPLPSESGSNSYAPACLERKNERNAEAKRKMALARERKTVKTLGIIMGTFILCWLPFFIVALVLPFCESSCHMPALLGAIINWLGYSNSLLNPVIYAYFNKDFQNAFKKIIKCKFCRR

5-HT2A Sites = target: T2, 5-HT2A Sites (Rattus norvegicus, UniProt P14842); assay: Drug affinity for 5-HT2A sites (3H-Ketanserin binding, cerebral cortex); conditions: Radioligand 3H-Ketanserin; tissue cerebral cortex
T2 construct: Radioligand: ^3 H-Ketanserin Tissue: Cerebral cortex; from tissue; host or cells: cerebral cortex
T2 sequence (P14842 whole entry): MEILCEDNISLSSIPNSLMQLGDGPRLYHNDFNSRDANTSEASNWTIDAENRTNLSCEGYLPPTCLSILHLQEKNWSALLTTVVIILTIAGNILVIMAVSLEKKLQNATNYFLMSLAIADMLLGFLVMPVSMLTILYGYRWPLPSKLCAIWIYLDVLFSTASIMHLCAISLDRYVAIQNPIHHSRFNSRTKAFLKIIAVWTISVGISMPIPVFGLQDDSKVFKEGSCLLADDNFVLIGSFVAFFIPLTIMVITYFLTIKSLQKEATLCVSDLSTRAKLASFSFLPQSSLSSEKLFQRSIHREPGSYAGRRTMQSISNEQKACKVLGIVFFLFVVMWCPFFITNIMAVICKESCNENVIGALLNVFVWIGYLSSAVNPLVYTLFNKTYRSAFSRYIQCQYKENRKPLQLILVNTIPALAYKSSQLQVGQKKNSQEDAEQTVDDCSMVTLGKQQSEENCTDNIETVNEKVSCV

rats = conditions: cited from earlier work
[1] = target: T3, [3H]-5-HT uptake by synaptosomes from rat frontal cortex (Rattus norvegicus, UniProt P31652); assay: Uptake of [3H]-5-HT by synaptosomes from rat frontal cortex; assay type: biochemical
T3 construct: synaptosomes from rat frontal cortex; from tissue; host or cells: rat frontal cortex synaptosomes
T3 sequence (P31652 whole entry): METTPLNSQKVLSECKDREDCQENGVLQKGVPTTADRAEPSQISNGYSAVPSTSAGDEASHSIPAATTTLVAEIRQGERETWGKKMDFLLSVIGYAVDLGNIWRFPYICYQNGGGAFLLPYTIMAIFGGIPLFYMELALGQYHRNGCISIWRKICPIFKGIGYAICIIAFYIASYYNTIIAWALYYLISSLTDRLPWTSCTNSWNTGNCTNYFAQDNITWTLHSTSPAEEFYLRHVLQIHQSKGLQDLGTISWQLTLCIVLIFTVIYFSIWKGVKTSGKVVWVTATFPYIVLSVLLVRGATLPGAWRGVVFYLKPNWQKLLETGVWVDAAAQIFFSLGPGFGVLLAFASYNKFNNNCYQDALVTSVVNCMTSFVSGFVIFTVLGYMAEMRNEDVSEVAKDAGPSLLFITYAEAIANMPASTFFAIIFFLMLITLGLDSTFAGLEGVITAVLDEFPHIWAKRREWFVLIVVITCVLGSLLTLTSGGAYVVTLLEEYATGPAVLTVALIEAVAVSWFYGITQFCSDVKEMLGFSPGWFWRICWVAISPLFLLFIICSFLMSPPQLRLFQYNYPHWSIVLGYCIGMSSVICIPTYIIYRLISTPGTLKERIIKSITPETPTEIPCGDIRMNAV

monkeys = conditions: cited from earlier work
[2] = system: alcohol-dependent individuals; conditions: compared to placebo; cited from earlier work
[3] = system: alcohol preferring (P) rats; assay: Effect on alcohol intake in alcohol preferring (P) rats; assay type: in vivo, rat
Description: To further illustrate the useful pharmacological properties of compounds of formula (I), the effect of Compound A administered systematically was determined in alcohol preferring (P) rats. Because of its pattern of drinking, the P animal seems to represent a valid genetically based model to approximate the human condition of alcoholism (McBride et al., Alcohol 7:199-205, 1990; Lankford et al., Pharmacol. Biochem. Behav. 8:293-299,1991). After maximally preferred alcohol concentrations had stabilised for four days, Compound A in a dose of 2.5 and 10 mg/kg was administered twice a day over four consecutive days. […] The highest dose of Compound A reduced intake of alcohol by >40%.

[4] = Radioligand 3H-8-OH-DPAT, tissue hippocampus

## CCNC(=O)N1CCN(CCCC(c2ccc(F)cc2)c2ccc(F)cc2)CC1 [Amperozide, reference compound]
5-HT1A Sites
  Ki: 805 nM
5-HT2A Sites
  Ki: 16 nM
rats
  Intake of alcohol: significantly attenuate
[1]
  IC50: 320 nM

## O=C1CC2(CCCC2)CC(=O)N1CCCCN1CCN(c2ncccn2)CC1 [Buspirone]
monkeys
  Consumption of alcohol: attenuate significantly
[2]
  Drop-out rate: lower drop-out rate
  Signs of craving: fewer signs of craving

## Cc1cccc(N2CCN(CCCCc3ccc(F)cc3)CC2)n1.O=C(O)/C=C/C(=O)O [Compound A, 1-[4-(p-fluorophenyl)-butyl]-4-(6-methyl-2-pyridinyl)-piperazine fumarate]
5-HT1A Sites; [4]
  Ki: 0.9 nM
5-HT2A Sites
  Ki: 10 nM
[3]; after Compound A injections
  Food and water after injections: returned to pre-drug levels
[3]; both doses, 2.5 and 10 mg/kg twice a day over four days, during administration
  Intake of alcohol (absolute g/kg and proportion of alcohol to total fluid intake): significantly reduced
[3]; each dose, during the period of injection
  Ingestion of food and water: increased the ingestion of food and water above pre-treatment levels
[3]; five days following administration, intakes rebounded
  Alcohol intakes after administration versus pre-treatment level: still being significantly lower than those of the pre-treatment level
[3]; highest dose (10 mg/kg) twice a day over four consecutive days
  Reduction of intake of alcohol: > 40%
[1]
  IC50: 12000 nM

## CCOc1cccnc1N1CCN(CCCCc2ccc(F)cc2)CC1 [Compound B, 1-[4-(p-fluorophenyl)-butyl]-4-(3-ethoxy-2-pyridinyl)-piperazine fumarate]
5-HT1A Sites; [4]
  Ki: 1.7 nM
5-HT2A Sites
  Ki: 1.6 nM

## COC(=O)c1cccnc1N1CCN(CCCC(c2ccc(F)cc2)c2ccc(F)cc2)CC1 [FG5893, 2-[4-[4,4-bis(4-fluorophenyl)butyl]-1-piperazinyl]-3-pyridine-carboxylic acid methyl ester dihydrochloride ethylat, reference compound]
5-HT1A Sites; [4]
  Ki: 0.7 nM
[1]; synaptosomes from rat frontal cortex, concentration which inhibits the uptake by 50%, read-out: IC50, uptake of [3H]-5-HT
  IC50: 80 nM
